# Source: patent US20250221957A1, “PS[…] AND THEIR USE FOR TREATING […] AND NE[…] DISORDERS” (Transcend Therapeutics, Inc., priority 2021, published 2025)
# Like-named read-outs stand apart in the source and are kept apart here.
# Experiments:
# Sprague Dawley rats [1] = test: Forced Swim Test (FST); type: in vivo, rat; details: for reduction in immobility (magnitude of the effect): single dose 30 min before testing
# Text: The Forced Swim Test (FST) is a classic, and the most used preclinical behavioral assay to screen compounds with antidepressant-like activity and has high predictive and face validity (Porsolt et al. (1977) Nature 266:730; Borsini and Meli (1988) Psychopharmacology 94:147). The premise of the FST is that when rats are placed into a cylinder filled with water, they will initially try to escape, but over time will become immobile. This increased immobility reflects behavioral despair, modeling a depressive-like state.
# Animals: Male Sprague Dawley rats (Charles River Laboratories) weighing 180-200 g on arrival, were used for this study which took place at Melior Discovery (Exton, PA). Rats acclimated to their home cages for at least one week before testing, were maintained in a controlled environment on a 12 h light/dark cycle, with no more than 2 rats per cage. Animals received ad libitum access to food and water and were assigned randomly to treatment groups. Animal use and procedures were in accordance with established protocols approved by the IACUC committee, Melior Standard Operation Procedures (SOP), and Transcend Therapeutics.
# Forced Swim Test (FST): In the FST trial, rats were be placed in a circular plexiglass container filled with water, with no means of escape. Water temperature was maintained at 22-25° C. and changed for every animal. After an acclimation period, rats were timed for inactivity (failure to struggle), activity, swim time and climbing time. Day 1 consisted of a 15 min acclimation trial, and Day 2 (24 h later) consisted of the 5 min test. A time sampling procedure was employed where animals were observed every 5 sec and scored for immobility, swimming, or climbing. Fluoxetine (10 mg/kg, IP, Sigma Aldrich) or 0.9% sterile saline vehicle (vehicle 3× group) were administered 23.5, 5, and 1 h before testing in the FST. […] The experimenter was blinded to treatment.
# Statistical Analysis: Data for each parameter of the test (immobility, swimming, or climbing) is expressed as the mean±SEM. Differences between groups were determined by one-way ANOVA and post-hoc Tukey's test with a p-value of less than 0.05 indicating statistically significant differences.
# Forced Swim Test: In the FST trial, rats were be placed in a circular plexiglass container filled with water, with no means of escape. Water temperature was maintained at 22-25° C. and changed for every animal. After an acclimation period, rats were timed for inactivity (failure to struggle), activity, swim time and climbing time. Day 1 consisted of a 15 min acclimation trial, and Day 2 (24 h later) consisted of the 5 min test. A time sampling procedure was employed where animals were observed every 5 sec and scored for immobility, swimming, or climbing. Fluoxetine (10 mg/kg, IP, Sigma Aldrich) or 0.9% sterile saline vehicle (vehicle 3× group) were administered 23.5, 5, and 1 h before testing in the FST. 2C-B (2.5, 10, or 20 mg/kg, IP, Cayman Chemical) or 0.9% saline vehicle (vehicle 1× group) were administered 30 min prior to FST testing. The experimenter was blinded to treatment.
# Drug Treatment: Fluoxetine (10 mg/kg, IP, Sigma Aldrich) or 0.9% sterile saline vehicle were administered 23.5, 5, and 1 h before testing in the FST. […] Control animals received fluoxetine alone, methylone alone, or saline vehicle.
# Forced Swim Test: In the FST trial, rats were be placed in a circular plexiglass container filled with water, with no means of escape. Water temperature was maintained at 22-25° C. and changed for every animal. After an acclimation period, rats were timed for inactivity (failure to struggle), activity, swim time and climbing time. The experimenter and scorer were blind to treatment group. Day 1 consisted of a 15 min acclimation trial, and Day 2 (24 h later) consisted of the 5 min test. A time sampling procedure was employed where animals were observed every 5 sec and scored for immobility, swimming, or climbing. […]
# mice [2] = test: Fear extinction paradigm, mouse model of PTSD; type: in vivo; details: MBDB 5 mg/kg IP, day 2
# Text: (FIG. 9A) Schematic of experimental design. A single CS-US (tone-shock) pairing on day 1 was followed by 6 CS presentations in a novel context (context B). […] On day 3, the time spent freezing to the CS was quantified. […] (FIG. 9C) No locomotor changes were observed on day 3 (t(26)=1.073, p>0.05). Data are mean +/− SEM.
# FIGS. 10A-10B: MBDB improves fear extinction in a mouse model of PTSD. A single CS-US (tone-shock) pairing on day 1 was followed by 6 conditioned stimulus (CS) presentations in a novel context (context B). MBDB or saline vehicle was injected 30 min prior to extinction training on day 2. The time spent freezing to the CS was quantified on […]. […] Data are mean +/− SEM. N=10 for MBDB group (5 mg/kg, IP) and N=16 for saline control group. **p<0.01 vs. vehicle control group.
# Effective PTSD treatments facilitate the disassociation between a traumatic memory and the patient's fear response, making cues for the traumatic memory evoke less of a fear response. This is modeled in the mouse fear extinction paradigm (see FIG. 9A) which takes place over 3 days. On day 1 (fear conditioning), mice are trained to acquire a “traumatic memory,” namely associating the conditioned stimulus (CS, tone) to the unconditioned stimulus (US, foot shock). On day 2 (extinction training), they are trained to forget the traumatic memory association by presenting the CS 6 times (with no US) in a novel environment. On day 3 (extinction recall), the mice are “asked” if that tone (CS) still elicits a fearful response, as measured by the time spent freezing when the tone is presented. Less time freezing means better extinction recall. Drugs that improve extinction recall reduce freezing time on day 3, and, therefore, show potential as a PTSD treatment.
# [3] = tested on: serotonergic terminals in the cortex and hippocampus; details: 25 mg/kg IP every 12 hours for 4 days; 2 weeks post-treatment; cited from earlier work
# drug users / humans = details: cited from earlier work
# Sprague Dawley rats [4] = details: cited from earlier work
# [5] = biological target: T1, Human serotonin 5HT2B receptor (Homo sapiens, UniProt P41595); test: Competitive radioligand binding to 5HT2B receptor membrane preparations; details: ratio of Ki values
# T1 construct: host or cells: 5HT2B receptor expressing membranes
# Procedure: Human serotonin 5HT2B receptor membrane preparations were divided into aliquots. On the day of the assay, membranes were diluted at 1:200 in incubation buffer. […] To each well was added 150 μL membrane preparation, 50 μL test compound, non-specific compound, or buffer alone, as well as 50 μL radioligand. The plate was incubated at 35° C. for 90 minutes with gentle agitation. […] For each concentration of drug, non-specific binding was subtracted from total binding to give specific binding. […] Ki was subsequently calculated using the ChengPrusoff equation.
# [6] = biological target: T1, Human serotonin 5HT2B receptor; details: literature values; read-out: reported Ki; cited from earlier work
# mice [7] = details: MDMA 7.5 mg/kg 30 minutes prior to extinction training (Young 2015); cited from earlier work
# [8] = depending on the animal model used and dosing conditions; cited from earlier work
# [9] = 13 of 77 deaths, meta-analysis; cited from earlier work
# T1 sequence (P41595 whole entry): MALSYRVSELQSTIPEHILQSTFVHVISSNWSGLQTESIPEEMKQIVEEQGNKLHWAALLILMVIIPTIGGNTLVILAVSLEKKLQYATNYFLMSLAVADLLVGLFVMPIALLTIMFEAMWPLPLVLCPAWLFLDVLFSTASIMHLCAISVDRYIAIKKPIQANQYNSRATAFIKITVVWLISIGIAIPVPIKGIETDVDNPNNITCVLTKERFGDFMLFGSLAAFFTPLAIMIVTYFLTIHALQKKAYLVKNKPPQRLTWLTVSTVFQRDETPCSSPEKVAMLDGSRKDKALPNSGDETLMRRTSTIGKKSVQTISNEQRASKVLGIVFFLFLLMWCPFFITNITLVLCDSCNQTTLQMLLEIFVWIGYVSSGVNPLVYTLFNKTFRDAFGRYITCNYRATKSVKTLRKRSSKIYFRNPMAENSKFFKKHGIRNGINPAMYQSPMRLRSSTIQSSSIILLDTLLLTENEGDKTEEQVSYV
smiles,measurement,setting,value
"CCC(Cc1ccc2c(c1)OCO2)NC (racemic) [MBDB, N-methyl-1-(1,3-benzodioxol-5-yl)-2-aminobutane]",climbing,Sprague Dawley rats [1]; MBDB IP 30 min before testing,significantly reduced only at the highest dose
same,swimming,Sprague Dawley rats [1]; MBDB IP 30 min before testing,robustly increased at all doses tested
same,immobility,"Sprague Dawley rats [1]; MBDB IP 30 min before testing, all doses tested (15-30 mg/kg)",significantly reduced immobility
same,extinction acquisition on the first trial of extinction training,mice [2],improved extinction acquisition
same,locomotor activity,mice [2],"small, but significant increase"
same,serotonergic terminals destroyed in the cortex and hippocampus,[3],55-60%
same,adverse effects,"drug users / humans; self-administered MBDB under supervision, 100 to 300 mg",no serious adverse effects
"COc1cc(CCN)c(OC)cc1Br [2C-B, 4-Bromo-2,5-dimethoxyphenethylamine]",climbing,"Sprague Dawley rats [1]; 2C-B 2.5, 10, 20 mg/kg IP",significantly decreased only in the high-dose group
same,reduction in immobility (magnitude of the effect),Sprague Dawley rats [1]; 2C-B high-dose (20 mg/kg IP),53%
same,reduction in immobility (magnitude of the effect),Sprague Dawley rats [1]; 2C-B mid-dose (10 mg/kg IP),50%
same,swimming,Sprague Dawley rats [1]; single dose of 2C-B 30 minutes before testing,significant increase in swimming
same,adverse effects,"drug users / humans; self-administered 2C-B, 10 to 20 mg, experienced drug users",no serious adverse effects
"CCN(CC)C(=O)[C@@H]1C=C2c3cccc4[nH]cc(c34)C[C@H]2N(C)C1 [LSD, lysergic acid-N,N-diethylamide]","reduction in immobility in the FST, previous reports",Sprague Dawley rats [4]; literature (Hibicke 2020; Yang 2013; Tizabi 2012),38%
CC(N)Cc1ccc2c(c1)OCO2 (centres unmarked) [MDA],greater affinity for the 5HT2B receptor compared with methylone,[5],37 times
same,Ki,[6],100 nM
"CNC(C)Cc1ccc2c(c1)OCO2 (centres unmarked) [MDMA, 3,4-Methylenedioxymethamphetamine]",greater affinity for the 5HT2B receptor compared with methylone,[5],7.5 times
same,"reduction in immobility, reported","Sprague Dawley rats [4]; MDMA 5 mg/kg, Flinders Sensitive Line rats (Majumder 2011)",45%
same,"reduction in immobility, reported","Sprague Dawley rats [4]; MDMA 5 mg/kg, Sprague Dawley rats (Majumder 2011)",45%
same,"reduction in immobility, reported","Sprague Dawley rats [4]; MDMA 10 mg/kg, Flinders Sensitive Line rats (Majumder 2011)",93%
same,"reduction in immobility, reported","Sprague Dawley rats [4]; MDMA 10 mg/kg, Sprague Dawley rats (Majumder 2011)",78%
same,reduced freezing compared to saline injected controls (extinction recall),mice [7],35%
same,half-life,[8],5 to 7 h
same,blood concentration in deaths attributable to MDMA alone,[9],478 to 53900 ng/mL
"CNCCC(Oc1ccc(C(F)(F)F)cc1)c1ccccc1 (centres unmarked) [fluoxetine, reference compound]",swimming behavior,Sprague Dawley rats [1]; Example 8,significantly increased swimming behavior
same,reduction in immobility,"Sprague Dawley rats [1]; fluoxetine 10 mg/kg IP at 23.5, 5 and 1 h before testing (Examples 6 and 7)",56%
same,reduced immobility compared to vehicle,"Sprague Dawley rats [1]; fluoxetine alone, 10 mg/kg IP x3 (Example 8)",60%
